Source: patent EP2386552A1, “Process for the preparation of (R) a-lipoic acid salts, their formulation and use in pharmaceutical compositions, in form of tablets containing them” (priority 2010, dated 2011)

Experiments:
[1] = Release test of tablets (Eur. Ph. 2.9.3, blade stirrer, artificial gastric buffer without pepsin); format: physicochemical; conditions: tablets containing the salt; compared with tablets containing other known salts
Procedure: The release test was carried out according to Eur. Ph. 2.9.3 with a blade stirrer (100 rpm) in 1000 mL of artificial gastric buffer without pepsin (Eur. […] The title is carried out by drawing 10 mL of medium, filtering on paper then evaluating the acid content by the spectrophotometer at the wavelength of 330 nm versus standard. The tablet hardness (N) is evaluated by a Schleuninger 6D durometer. The compression force was settled to obtain three intervals of tablet hardness: 40-90 N; 90-120Ne> […]. Table 2 : release of (R) α-lipoic acid tablet

[2] = pH of 1 % solution in water; format: physicochemical
Powder apparent density = format: physicochemical; conditions: in g/mL
Excerpt: As solvents, 1-4 carbon atom aliphatic alcohols are used, having linear or branched chain, pure or denaturated by usual denaturants, optionally in a mixture with water or among them or with the mother liquors coming from a previous production cycle that used the same raw materials. The use of ketones, like acetone, as such, (Ex.7, 9) or in a mixture with some of the above mentioned alcohols (Ex.11, 12), produces an amorphous precipitate not suitable to be utilized for the direct compression because of the powder very low density. For industrial purpose a powder having low density (<0,2 g/mL) requires an additional operation (compactation / dry granulation / humid granulation) to produce tablets.

[3] = Absorption and bioavailability of tablets; format: in vivo; conditions: formulated in tablet; compared with the corresponding tromethamine salt and lipoic acid as a racemate at equivalent doses

Compound | dissolution profile [1] | pH 1 % in water [2] | Powder apparent density (Powder apparent density) | absorption and bioavailability [3]
O=C(O)CCCC[C@@H]1CCSS1 [Ex. 7, Diazobicyclo [2,2,2] octane (R) α-lipoate] | dissolution profile better | 5.2 | 0.4-0.6 | –
O=C(O)CCCC[C@@H]1CCSS1 [Ex. 12, Piperazine (R) α-lipoate (1:1)] | – | 7.2 | – | –

More lines, now with the values ahead:

dissolution profile [1] | pH 1 % in water [2] | Powder apparent density (Powder apparent density) | absorption and bioavailability [3] | Compound
– | 6.6 | 0.5-0.7 | – | O=C(O)CCCC[C@@H]1CCSS1 [Ex. 1, Trometamol (R) α-lipoate, reference compound]
dissolution profile better | 6.6 | – | – | O=C(O)CCCC[C@@H]1CCSS1 [Ex. 6, Cystamine (R) α-lipoate]
dissolution profile better | 5.5 | 0.5-0.6 | better absorption and bioavailability | O=C(O)CCCC[C@@H]1CCSS1 [Ex. 8, Piperazine (R) α-lipoato (2:1)]
